# Data: patent publication EP4635500A1, “THERAPEUTIC AGENT FOR BACTERIAL INFECTION” (Sumitomo Pharma Co., Ltd., priority 2022, dated 2024)
# Read-outs that look alike come from different tables or passages of the source.
# Experiments:
# A. baumannii = assay: MIC, broth microdilution, CDC/FDA Antibiotic Resistance Isolate Bank (Example 7, Tables 9, 13, 14); type: cell-based, Acinetobacter baumannii; conditions: for MIC: read-out: MIC
# CRE and CPE strains = assay: MIC, broth microdilution, standard strains and Japanese clinical isolates (Example 5, Table 4 continued; organism of each KUB strain not given); type: cell-based
# Enterobacter hormaechei = assay: MIC, broth microdilution, standard strains and Japanese clinical isolates (Example 5, Table 4); type: cell-based; conditions: ATCCBAA2082; KUB4001 Enterobacter hormaechei ATCC BAA-2082, KPC-2
# Providencia rettgeri = assay: as above; type: cell-based; conditions: ATCCBAA2525; KUB4010 Providencia rettgeri ATCC BAA-2525, OXA-181
# Enterobacter cloacae = assay: as above; type: cell-based
# [1] = MIC distribution, metallo-β-lactamase-producing A. baumannii, inhibitor µg/mL in parentheses
smiles,measurement,setting,value
"CC(C)(O/N=C(\C(=O)N[C@@H]1C(=O)N2C(C(=O)[O-])=C(C[N+]3(CCNC(=O)c4ccc(O)c(O)c4Cl)CCCC3)CS[C@H]12)c1csc(N)n1)C(=O)O [Cefiderocol, cefiderocol]",MIC,"A. baumannii; Acinetobacter baumannii, A. baumannii KUB No. 5710, AR Bank #277, OXA-24, OXA-65",4 µg/mL
same,MIC,"A. baumannii; Acinetobacter baumannii, A. baumannii KUB No. 5711, AR Bank #278, OXA-23, OXA-66",0.5 µg/mL
same,MIC,"A. baumannii; Acinetobacter baumannii, A. baumannii KUB No. 5712, AR Bank #279, OXA-23, OXA-66",0.25 µg/mL
same,MIC,"A. baumannii; Acinetobacter baumannii, A. baumannii KUB No. 5713, AR Bank #280, OXA-66",0.25 µg/mL
same,MIC,"A. baumannii; Acinetobacter baumannii, A. baumannii KUB No. 5714, AR Bank #281, OXA-82",0.12 µg/mL
same,MIC,"A. baumannii; Acinetobacter baumannii, A. baumannii KUB No. 5715, AR Bank #282, OXA-23, OXA-66",0.5 µg/mL
same,MIC,"A. baumannii; Acinetobacter baumannii, A. baumannii KUB No. 5716, AR Bank #283, OXA-23, OXA-66",0.25 µg/mL
same,MIC,"A. baumannii; Acinetobacter baumannii, A. baumannii KUB No. 5717, AR Bank #284, OXA-24, OXA-65",0.25 µg/mL
same,MIC,"A. baumannii; Acinetobacter baumannii, A. baumannii KUB No. 5718, AR Bank #285, OXA-24, OXA-65",1 µg/mL
same,MIC,"A. baumannii; Acinetobacter baumannii, KUB No. 5719, AR Bank #286",0.5 µg/mL
same,MIC,"A. baumannii; Acinetobacter baumannii, KUB No. 5720, AR Bank #287",0.5 µg/mL
same,MIC,"A. baumannii; Acinetobacter baumannii, KUB No. 5721, AR Bank #288",0.25 µg/mL
same,MIC,"A. baumannii; Acinetobacter baumannii, KUB No. 5722, AR Bank #259",0.12 µg/mL
same,MIC,"A. baumannii; Acinetobacter baumannii, KUB No. 5723, AR Bank #290",0.5 µg/mL
same,MIC,"A. baumannii; Acinetobacter baumannii, KUB No. 5724, AR Bank #291",0.5 µg/mL
same,MIC,"A. baumannii; Acinetobacter baumannii, KUB No. 5725, AR Bank #292",0.5 µg/mL
same,MIC,"A. baumannii; Acinetobacter baumannii, KUB No. 5726, AR Bank #293",0.5 µg/mL
same,MIC,"A. baumannii; Acinetobacter baumannii, KUB No. 5727, AR Bank #294",0.5 µg/mL
same,MIC,"A. baumannii; Acinetobacter baumannii, KUB No. 5728, AR Bank #295",0.5 µg/mL
same,MIC,"A. baumannii; Acinetobacter baumannii, KUB No. 5729, AR Bank #296",0.5 µg/mL
same,MIC,"A. baumannii; Acinetobacter baumannii, KUB No. 5730, AR Bank #297",0.12 µg/mL
same,MIC,"A. baumannii; Acinetobacter baumannii, KUB No. 5731, AR Bank #298",0.5 µg/mL
same,MIC,"A. baumannii; Acinetobacter baumannii, KUB No. 5732, AR Bank #299",8 µg/mL
same,MIC,"A. baumannii; Acinetobacter baumannii, KUB No. 5733, AR Bank #300",0.25 µg/mL
same,MIC,"A. baumannii; Acinetobacter baumannii, KUB No. 5734, AR Bank #301",1 µg/mL
same,MIC,"A. baumannii; Acinetobacter baumannii, KUB No. 5735, AR Bank #302",4 µg/mL
same,MIC,"A. baumannii; Acinetobacter baumannii, KUB No. 5736, AR Bank #303",0.12 µg/mL
same,MIC,"A. baumannii; Acinetobacter baumannii, KUB No. 5737, AR Bank #304",≤ 0.06 µg/mL
same,MIC,"A. baumannii; Acinetobacter baumannii, KUB No. 5738, AR Bank #305",0.25 µg/mL
same,MIC,"A. baumannii; Acinetobacter baumannii, KUB No. 5739, AR Bank #306",1 µg/mL
same,MIC,"A. baumannii; Acinetobacter baumannii, KUB No. 5740, AR Bank #307",0.12 µg/mL
same,MIC,"A. baumannii; Acinetobacter baumannii, KUB No. 5741, AR Bank #308",0.25 µg/mL
same,MIC,"A. baumannii; Acinetobacter baumannii, KUB No. 5742, AR Bank #309",4 µg/mL
same,MIC,"A. baumannii; Acinetobacter baumannii, KUB No. 5743, AR Bank #310",2 µg/mL
same,MIC,"A. baumannii; Acinetobacter baumannii, KUB No. 5744, AR Bank #311",0.5 µg/mL
same,MIC,"A. baumannii; Acinetobacter baumannii, KUB No. 5745, AR Bank #312",0.25 µg/mL
same,MIC,"A. baumannii; Acinetobacter baumannii, KUB No. 5746, AR Bank #313",1 µg/mL
same,MIC50,"A. baumannii; Acinetobacter baumannii, 55 isolates of A. baumannii, read-out: MIC50",0.5 µg/mL
same,MIC80,"A. baumannii; Acinetobacter baumannii, 55 isolates of A. baumannii, read-out: MIC80",2 µg/mL
same,MIC90,"A. baumannii; Acinetobacter baumannii, 55 isolates of A. baumannii, read-out: MIC90",4 µg/mL
same,Number of isolates at MIC 2 µg/mL,A. baumannii; [1],2
same,Number of isolates at MIC 16 µg/mL,A. baumannii; [1],1
same,MIC,"CRE and CPE strains; strain KUB3149, carbapenemase gene NDM-1, read-out: MIC",2 µg/mL
same,MIC,"CRE and CPE strains; strain KUB3150, carbapenemase gene OXA-48, read-out: MIC",≤ 0.06 µg/mL
same,MIC,"CRE and CPE strains; strain KUB3151, carbapenemase gene IMP-1, read-out: MIC",1 µg/mL
same,MIC,"CRE and CPE strains; strain KUB3152, carbapenemase gene KPC-2, read-out: MIC",2 µg/mL
same,MIC,"CRE and CPE strains; strain KUB3154, carbapenemase gene KPC-2, read-out: MIC",4 µg/mL
same,MIC,"CRE and CPE strains; strain KUB3157, carbapenemase gene NDM-1",8 µg/mL
same,MIC,"CRE and CPE strains; strain KUB3164, carbapenemase gene IMP-6",0.12 µg/mL
same,MIC,Enterobacter hormaechei,2 µg/mL
same,MIC,Providencia rettgeri,2 µg/mL
same,MIC,"Enterobacter cloacae; ATCCBAA2341, KUB4002 Enterobacter cloacae ATCC BAA-2341, KPC-3",0.5 µg/mL
same,MIC,"Enterobacter cloacae; ATCCBAA2468, KUB4006 Enterobacter cloacae ATCC BAA-2468, NDM-1",1 µg/mL
